From paper PMC12274840 (The Journal of Biological Chemistry, 2025)
≈ marks a conversion by molar mass, not a printed value. Like-named read-outs stand apart in the source and are kept apart here.

Tests used:
[1] = tested on: E. coli KA797 cells carrying pUK21 with BlaC WT (Tat); assay: microbe, parasite or virus in culture; assay type: cell-based; settings: Escherichia coli, antibiotic alone
[2] = tested on: E. coli KA797 cells carrying pUK21 with KPC-2 (Tat); assay: microbe, parasite or virus in culture; assay type: cell-based; settings: Escherichia coli, antibiotic alone
[3] = tested on: E. coli KA797 cells carrying pUK21 with NmcA (pelB/Sec); assay: microbe, parasite or virus in culture; assay type: cell-based; settings: Escherichia coli, antibiotic alone
[4] = tested on: E. coli KA797 cells carrying BlaC position 105 library; assay type: cell-based, Escherichia coli; settings: for Fi AVG (average fitness): relative to WT Ile; for Fi AVG (average fitness) / Fi MEM AVG: average of replicates; for Fi MEM AVG / Fi MEM 1 / Fi MEM 2 / Fi MEM 3 / Significance (Fi MEM AVG): meropenem; for Fi MEM 1: replicate 1; for Fi MEM 2: replicate 2; for Fi MEM 3: replicate 3

C[C@@H](O)[C@H]1C(=O)N2C(C(=O)O)=C(S[C@@H]3CN[C@H](C(=O)N(C)C)C3)[C@H](C)[C@H]12 [meropenem]
MIC [1]: 0.1 µg/mL (≈ 0.261 µM) | MIC [2]: 0.4 µg/mL (≈ 1.04 µM) | MIC [3]: 1.6 µg/mL (≈ 4.17 µM) | Fi AVG (average fitness) ([4]; AA 105 Ala (BlaC I105A)): -0.028 | Fi MEM AVG ([4]; AA 105 Ala): -0.183 | Fi MEM 1 ([4]; AA 105 Ala): -0.183 | Fi MEM AVG ([4]; AA 105 Arg): -0.097 | Fi MEM 1 ([4]; AA 105 Arg): 0.189 | Fi MEM 2 ([4]; AA 105 Arg): 0.262 | Fi MEM 3 ([4]; AA 105 Arg): -0.743 | Fi AVG (average fitness) ([4]; AA 105 Asn (BlaC I105N)): -0.021 | Fi MEM AVG ([4]; AA 105 Asn): -0.526 | Fi MEM 1 ([4]; AA 105 Asn): 0.793 | Fi MEM 2 ([4]; AA 105 Asn): -1.824 | Fi MEM 3 ([4]; AA 105 Asn): -0.547 | Fi AVG (average fitness) ([4]; AA 105 Asp (BlaC I105D)): -0.059 | Significance (Fi MEM AVG) ([4]; AA 105 Asp): - | Fi MEM AVG ([4]; AA 105 Asp): -1.181 | Fi MEM 1 ([4]; AA 105 Asp): -1.339 | Fi MEM 2 ([4]; AA 105 Asp): -1.644 | Fi MEM 3 ([4]; AA 105 Asp): -0.561 | Fi MEM AVG ([4]; AA 105 Cys): -0.623 | Fi MEM 1 ([4]; AA 105 Cys): -1.368 | Fi MEM 2 ([4]; AA 105 Cys): 1.109 | Fi MEM 3 ([4]; AA 105 Cys): -1.611 | Fi AVG (average fitness) ([4]; AA 105 Gln (BlaC I105Q)): -0.020 | Fi MEM AVG ([4]; AA 105 Gln): -1.909 | Fi MEM 2 ([4]; AA 105 Gln): -1.909 | Fi AVG (average fitness) ([4]; AA 105 Glu (BlaC I105E)): -0.058 | Significance (Fi MEM AVG) ([4]; AA 105 Glu): - | Fi MEM AVG ([4]; AA 105 Glu): -1.296 | Fi MEM 1 ([4]; AA 105 Glu): -1.915 | Fi MEM 2 ([4]; AA 105 Glu): 0.069 | Fi MEM 3 ([4]; AA 105 Glu): -2.043 | Fi AVG (average fitness) ([4]; AA 105 Gly (BlaC I105G)): -0.019 | Significance (Fi MEM AVG) ([4]; AA 105 Gly): - | Fi MEM AVG ([4]; AA 105 Gly): -1.447 | Fi MEM 1 ([4]; AA 105 Gly): -0.905 | Fi MEM 2 ([4]; AA 105 Gly): -2.832 | Fi MEM 3 ([4]; AA 105 Gly): -0.603 | Fi MEM AVG ([4]; AA 105 His): 0.129 | Fi MEM 1 ([4]; AA 105 His): 1.220 | Fi MEM 2 ([4]; AA 105 His): -0.828 | Fi MEM 3 ([4]; AA 105 His): -0.00649 | Fi MEM AVG ([4]; AA 105 Ile (WT)): 0.000 | Fi MEM 1 ([4]; AA 105 Ile (WT)): 0.000 | Fi MEM 2 ([4]; AA 105 Ile (WT)): 0.000 | Fi MEM 3 ([4]; AA 105 Ile (WT)): 0.000 | Significance (Fi MEM AVG) ([4]; AA 105 Leu): - | Fi MEM AVG ([4]; AA 105 Leu): -1.047 | Fi MEM 1 ([4]; AA 105 Leu): -0.470 | Fi MEM 2 ([4]; AA 105 Leu): -1.669 | Fi MEM 3 ([4]; AA 105 Leu): -1.001 | Significance (Fi MEM AVG) ([4]; AA 105 Lys): - | Fi MEM AVG ([4]; AA 105 Lys): -2.317 | Fi MEM 1 ([4]; AA 105 Lys): -1.936 | Fi MEM 2 ([4]; AA 105 Lys): -2.755 | Fi MEM 3 ([4]; AA 105 Lys): -2.261 | Fi MEM AVG ([4]; AA 105 Met): -0.579 | Fi MEM 1 ([4]; AA 105 Met): -0.023 | Fi MEM 2 ([4]; AA 105 Met): -0.087 | Fi MEM 3 ([4]; AA 105 Met): -1.628 | Significance (Fi MEM AVG) ([4]; AA 105 Phe): - | Fi MEM AVG ([4]; AA 105 Phe): -1.123 | Fi MEM 1 ([4]; AA 105 Phe): -0.896 | Fi MEM 2 ([4]; AA 105 Phe): -1.005 | Fi MEM 3 ([4]; AA 105 Phe): -1.468 | Fi AVG (average fitness) ([4]; AA 105 Pro (BlaC I105P)): -0.044 | Significance (Fi MEM AVG) ([4]; AA 105 Pro): - | Fi MEM AVG ([4]; AA 105 Pro): -1.653 | Fi MEM 1 ([4]; AA 105 Pro): -2.435 | Fi MEM 2 ([4]; AA 105 Pro): 0.050 | Fi MEM 3 ([4]; AA 105 Pro): -2.575 | Significance (Fi MEM AVG) ([4]; AA 105 Ser): -
